Tested on: M. tuberculosis H37Rv growth inhibition
Test: M. tuberculosis H37Rv growth inhibitors, H37Rv strain (AID 1626)
Conditions: for IC90: measured here: IC90 against H37Rv; for CC50: measured here: Vero cell cytotoxicity

Row | Compound | IC50 | IC90 | CC50
1 | C=C1C(=O)O[C@@H]2C[C@@H](C)[C@@H]3C=CC(=O)[C@@]3(C)[C@@H](OC(=O)CC(=O)O[C@H]3[C@@H]4C(=C)C(=O)O[C@@H]4C[C@@H](C)[C@@H]4C=CC(=O)[C@]43C)[C@H]12 | 1.47 µM | 3.35 µM | 1.4 µM
2 | CCSc1nnc(NC(=O)c2ccc3ccccc3n2)s1 | 0.628 µM | 2.19 µM | 38.1 µM
3 | O=C(CNC(=O)/C(=C\c1ccc(Br)cc1)NC(=O)c1ccccc1)OCc1ccccc1 | 1.92 µM | 3.33 µM | 13 µM
4 | CCCNC(=O)CSc1nnc(-c2ccc(F)cc2)o1 | 5.88 µM | > 100 µM | –
5 | O=C(CC(SCc1ccco1)c1ccc(O)cc1)c1cccs1 (stereo unspecified) | 27.4 µM | > 100 µM | > 40 µM
6 | COC(=O)c1ccccc1Sc1ncnc2onc(C)c12 | 15.3 µM | 30.7 µM | > 40 µM
7 | Cc1nc2cc(C(=O)OCC(=O)NC34CC5CC(CC(C5)C3)C4)ccc2n1-c1ccccc1 | 7.9 µM | 12.1 µM | –
8 | Fc1ccc(Sc2nc(-c3ccccc3)nnc2C(F)(F)F)cc1 | 90.4 µM | > 100 µM | > 40 µM
9 | CCCNC(=O)c1nnsc1S(=O)(=O)c1ccc(Cl)cc1 | 25.2 µM | 28 µM | 16.2 µM
10 | Cc1ccc(Nc2c(-c3ccccn3)nc3cccc(C)n23)cc1 | 2.72 µM | 3.06 µM | 1.18 µM
11 | Cc1ccccc1N=Nc1ccc(O)c2ncccc12 | 21.1 µM | > 100 µM | 0.933 µM
12 | O=C(COC(=O)c1ccc(-c2ccc([N+](=O)[O-])cc2)o1)NC(=O)NC12CC3CC(CC(C3)C1)C2 | 10.3 µM | > 100 µM | –
13 | Cc1cc(NC(=O)CSc2nc(C(C)C)nc3sc4c(c23)CCCC4)no1 | 11.2 µM | > 100 µM | > 40 µM
14 | CCN(CC)c1ccc(CNc2nc3ccccc3n2CCN2CCCCC2)cc1 | 36.7 µM | 43.8 µM | > 40 µM
15 | O=C(CSc1nc2ccccc2o1)Nc1nc(-c2ccccc2)cs1 | 28.1 µM | > 100 µM | –
16 | COc1cccc(C2C(C(=O)Nc3nc4ccccc4s3)=C(C)NC3=C2C(=O)CC(C)(C)C3)c1OC (stereo unspecified) | – | > 100 µM | > 40 µM
17 | COc1cccc(CNCCc2c[nH]c3ccccc23)c1OCc1ccccc1F | 7.08 µM | 11.3 µM | 14.4 µM
18 | c1ccc(CN2CCC(Nc3nc(-c4cccs4)nc4ccccc34)CC2)cc1 | 4.78 µM | 6.93 µM | 17.5 µM
19 | CC(=O)C1=C(C)NC(SCC(=O)c2ccc(F)cc2)=C(C#N)C1c1ccco1 (stereo unspecified) | 11.7 µM | 21.1 µM | > 40 µM
20 | CN(C)CCCn1c(SCC(=O)Nc2nc(-c3cccc(Br)c3)cs2)nc2ccccc2c1=O | 5.61 µM | 5.96 µM | 8.6 µM

Row | Compound | IC50 | IC90 | CC50
21 | CCOC(=O)c1ccc(-n2c(CCC(=O)O)ccc2-c2cccs2)cc1 | – | > 100 µM | –
22 | CCOc1ccc(-c2csc(/C(C#N)=C\c3ccc(O)c([N+](=O)[O-])c3)n2)cc1 | 8.54 µM | 14.9 µM | 10.9 µM
23 | S=c1[nH]c2ccc3ccccc3c2[nH]1 | 23.7 µM | > 100 µM | > 40 µM
24 | Cn1cc(C(=O)CCl)c2ccccc21 | 1.6 µM | 4.01 µM | 10.9 µM
25 | CCCn1c(NC(=O)c2ccc(Br)cc2)nc2ccccc21 | 17.2 µM | > 100 µM | > 40 µM
26 | COc1ccc(-c2cc(O)cc(O)c2)cc1 | 8.79 µM | > 100 µM | –
27 | COc1cccc(C2C3=C(N=c4s/c(=C\c5cccc(O)c5)c(=O)n42)c2ccccc2CC3)c1OC (stereo unspecified) | 8.79 µM | 13.9 µM | 23.9 µM
28 | O=C(O)C1CCCCC1C(=O)Nc1ccc2c(c1)CCC2 (stereo unspecified) | 73.5 µM | > 100 µM | –
29 | Cc1cc(Cl)ccc1OCCCC(=O)NO | 28.6 µM | > 100 µM | 35.7 µM
30 | CCOc1ccc(NC(=O)CCn2cccc2)cc1 | – | > 100 µM | –
31 | O=C(/C=C/c1cccs1)Nc1cccc(NC(=O)/C=C/c2cccs2)n1 | 10.4 µM | > 100 µM | 28 µM
32 | O=C1c2ccccc2C(=O)N1CCCCN(C(=O)c1cc([N+](=O)[O-])cc([N+](=O)[O-])c1)c1ccc(Cl)cc1 | 1.23 µM | 1.65 µM | –
33 | O=C(Nc1nnc(-c2ccccc2)o1)c1nc2ccccc2s1 | 6.13 µM | 13.6 µM | > 40 µM
34 | Cn1c(C(C#N)C(=O)c2ccco2)nc2ccccc21 (stereo unspecified) | 6.99 µM | > 100 µM | –
35 | COC(=O)CCCC(=O)Nc1ccc(Cl)c(Cl)c1 | 23.1 µM | > 100 µM | –
36 | CCOC(=O)c1ccc(N/C=C2/CCCC(C)C2=O)cc1 (stereo unspecified) | 10.9 µM | > 100 µM | –
37 | O=c1[nH]c(-c2ccccn2)nc2sc(-c3ccccc3)cc12 | < 0.391 µM | 0.553 µM | 2.2 µM
38 | CC(C)OC(=O)c1ccc(NC(=O)c2cncc(Br)c2)cc1 | – | > 100 µM | –
39 | CCN(CC)CCn1c(NC(=O)c2ccc(C(F)(F)F)cc2)nc2ccccc21 | – | – | > 40 µM
40 | Cc1ccc(-c2cc(C(=O)Nc3nccs3)c3ccccc3n2)c(C)c1 | 9.6 µM | 11.9 µM | > 40 µM

Row | Compound | IC50 | IC90 | CC50
41 | COc1cccc(C(=O)Nc2ccc3nc(N4CCN(c5ncccn5)CC4)cc(C)c3c2)c1OC | < 0.195 µM | 1.72 µM | 15.2 µM
42 | COc1ccc(N=Cc2c[nH][nH]c2=O)cc1 | – | > 100 µM | –
43 | Cc1cccc(-c2noc(-c3cc4ccccc4oc3=O)n2)c1 | 1.28 µM | > 100 µM | –
44 | O=c1oc2ccccc2c(Nc2ccc3ccccc3c2)c1[N+](=O)[O-] | 7.32 µM | > 100 µM | > 40 µM
45 | CCOC(=O)CSc1nnc(-c2ccc(OC)cc2OC)o1 | 1.24 µM | 2.38 µM | –
46 | O/N=C/c1ccc(-c2cc(Cl)ccc2Cl)o1 | – | > 100 µM | –
47 | CC(=O)Nc1ccc(Nc2cc(C)nc3c(-c4ccccc4)c(C)nn23)cc1 | – | > 100 µM | > 40 µM
48 | Cc1cc([N+](=O)[O-])ccc1NC(=O)c1ccc(NC(=O)C(C)C)cc1 | 12.3 µM | > 100 µM | –
49 | O=C(NC12CC3CC(CC(C3)C1)C2)c1ccc(-c2ccc(Br)cc2)o1 | 6.56 µM | 12.7 µM | 35.3 µM
50 | Cc1nn(-c2ccccc2)c(N)c1C(c1ccc(C(C)C)cc1)c1c(C)nn(-c2ccccc2)c1N | 8.73 µM | 13 µM | > 40 µM
51 | Cc1ccccc1C(=O)N1CCc2cc(-c3nc(NC(=O)Cc4ccc5c(c4)OCO5)sc3C)ccc21 | – | – | > 40 µM
52 | Cc1ccc(SC/C(O)=C(\C#N)c2nc3ccccc3n2C)cc1 | – | – | > 40 µM
53 | O=C(CCC(=O)Nc1ccc(Oc2ccccc2)cc1)NCCO | – | > 100 µM | –
54 | CC(=O)/C=C/c1ccc2ccccc2n1 | 5.65 µM | 6.34 µM | 16.1 µM
55 | CCCCc1ccc(C2C3=C(CC(C)(C)CC3=O)NC3=C2C(=O)c2ccccc23)cc1 (stereo unspecified) | 3.09 µM | > 100 µM | > 40 µM
56 | CCOc1ccc(NC(C(=O)Nc2cccc(C(C)=O)c2)c2ccccc2)cc1 (stereo unspecified) | – | > 100 µM | –
57 | Cc1c(Cc2ccccc2)c(=O)n2c([nH]c3ccccc32)c1C#N | 3.04 µM | > 100 µM | 13 µM
58 | COc1ccc(N=C2NN=C(c3c(C)[nH]c4ccccc34)CS2)cc1 | 39 µM | > 100 µM | 29.6 µM
59 | CCC(=O)c1coc2ccc(O)cc12 | 11.1 µM | > 100 µM | –
